# Experimental data as given in patent US8686002B2, “Heterocyclic compounds and their use as binding partners for 5-HT5 receptors” (AbbVie Deutschland GmbH & Co. KG, priority 2005, dated 2014).
# Where a name gives a salt, the structure may show the parent alone.
# Molecular target: 5-HT5A (Homo sapiens, UniProt P47898)
# Assay: Affinity of selected compounds for 5-HT5A (Ki)
# Format: binding
# Protocol: In both assays, different concentrations of the test substances are used and the Ki and IC50 values are determined.
# Sequence of 5-HT5A (P47898 whole entry): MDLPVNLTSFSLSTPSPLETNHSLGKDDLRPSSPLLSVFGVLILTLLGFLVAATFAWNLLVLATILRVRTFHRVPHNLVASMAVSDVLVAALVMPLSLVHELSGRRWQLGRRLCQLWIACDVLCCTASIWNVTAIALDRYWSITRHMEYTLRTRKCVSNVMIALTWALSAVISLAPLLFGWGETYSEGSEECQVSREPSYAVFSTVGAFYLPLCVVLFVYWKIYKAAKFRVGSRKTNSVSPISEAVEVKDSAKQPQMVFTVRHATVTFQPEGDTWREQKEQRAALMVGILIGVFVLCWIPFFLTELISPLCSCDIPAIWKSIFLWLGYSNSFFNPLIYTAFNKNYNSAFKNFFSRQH
row,Ki,Molecule
1,< 10000 nM,"COc1ccccc1CN1Cc2ccccc2N=C1NCC(C)C [Example 77, 2-(Isobutylamino)-3-(2-methoxybenzyl)-3,4-dihydroquinazoline acetate]"
2,< 300 nM,"NC1=Nc2ccccc2CN1Cc1cccc2c1OCC2 [Example 68, 3-(2,3-Dihydro-1-benzofuran-7-ylmethyl)-3,4-dihydroquinazolin-2-amine hydrochloride]"
3,< 300 nM,"COc1cccc(F)c1Cc1cc2ncccc2nc1N [Example 47, 3-(2-Fluoro-6-methoxybenzyl)-1,5-naphthyridin-2-amine]"
4,< 300 nM,"COc1cccc(OC)c1CN1Cc2ccc(C)cc2N=C1N [Example 84, 3-(2,6-Dimethoxybenzyl)-7-methyl-3,4-dihydroquinazolin-2-aminium acetate]"
5,< 300 nM,"COc1ccccc1Cc1cc2cc(N3CCOCC3)ccc2nc1N [Example 44, 3-(2-Methoxybenzyl)-6-morpholin-4-ylquinolin-2-amine]"
6,< 300 nM,"COc1cccc(OC(C)C)c1Cc1cc2ccccc2nc1N [Example 5, 3-(2-Isopropoxy-6-methoxybenzyl)quinolin-2-amine]"
7,< 300 nM,"COc1ccccc1Cc1cc2cc3c(cc2nc1N)OCO3 [Example 14, 7-(2-Methoxybenzyl)[1.3]dioxolo[4.5-g]quinolin-6-amine]"
8,< 300 nM,"COc1ccccc1Cc1cc2ccncc2nc1N [Example 36, 3-(2-Methoxybenzyl)-1,7-naphthyridin-2-amine]"
9,< 10000 nM,"COc1ccccc1CN1Cc2ccccc2N=C1N1CCN(C)CC1 [Example 79, 3-(2-Methoxybenzyl)-2-(4-methylpiperazin-1-yl)-3,4-dihydroquinazoline fumarate]"
10,< 10000 nM,"COc1ccccc1CN1Cc2ccccc2N=C1NCc1cccs1 [Example 100, 3-(2-Methoxybenzyl)-N-(2-thienylmethyl)-3,4-dihydroquinazolin-2-amine hydrochloride]"
11,< 300 nM,"COc1cccc(O)c1Cc1cc2ccccc2nc1N [Example 2, 2-[(2-Aminoquinolin-3-yl)methyl]-3-methoxyphenol]"
12,< 300 nM,"CC(C)Oc1cccc(F)c1Cc1cc2ccccc2nc1N [Example 56, 3-(2-Fluoro-6-isopropoxybenzyl)quinolin-2-amine hydrochloride]"
13,< 300 nM,"Nc1nc2ccccc2cc1Cc1ccccc1OC(F)F [Example 61, 3-[2-(difluoromethoxy)benzyl]quinolin-2-amine]"
14,< 300 nM,"COc1cccc(OC)c1Cc1cc2cccc(OC)c2nc1N [Example 52, 3-(2,6-Dimethoxybenzyl)-8-methoxyquinolin-2-amine hydrochloride]"
15,< 300 nM,"COc1cccc(OC)c1CN1Cc2ccc(-c3cccnc3)cc2N=C1N [Example 85, 3-(2,6-Dimethoxybenzyl)-7-pyridin-3-yl-3,4-dihydroquinazolin-2-aminium acetate]"
16,< 300 nM,"COc1ccccc1CN1Cc2ccccc2N=C1NC1Cc2ccccc2C1 [Example 74, N-(2,3-Dihydro-1H-inden-2-yl)-3-(2-methoxybenzyl)-3,4-dihydroquinazolin-2-amine acetate]"
17,< 300 nM,"COc1cccc(F)c1Cc1cc2cnccc2nc1N [Example 35, 3-(2-Fluoro-6-methoxybenzyl)-1,6-naphthyridin-2-amine]"
18,< 300 nM,"COc1cccc(Cl)c1Cc1cc2ccc(Cl)cc2nc1N [Example 27, 7-Chloro-3-(2-chloro-6-methoxybenzyl)quinolin-2-amine]"
19,< 300 nM,"CCOc1ccccc1Cc1cc2ccccc2nc1N [Example 55, 3-(2-Ethoxybenzyl)quinolin-2-amine hydrochloride]"
20,< 300 nM,"Nc1nc2ccccc2cc1Cc1ccccc1O [Example 25, 2-[(2-Aminoquinolin-3-yl)methyl]phenol]"
21,< 300 nM,COc1cccc(OC)c1Cc1cc2cc3c(cc2nc1N)OCO3 [Example 12]
22,< 10000 nM,"COc1ccccc1CN1Cc2ccccc2N=C1NCCc1ccccc1 [Example 97, [3-(2-Methoxybenzyl)-3,4-dihydroquinazolin-2-yl]phenethylamine hydrochloride]"
23,< 10000 nM,"COc1ccc(CN2Cc3ccccc3N=C2N)c(OC)c1 [Example 70, 3-(2,4-Dimethoxybenzyl)-3,4-dihydroquinazolin-2-amine]"
24,< 300 nM,"COc1ccccc1Cc1cc2cc(N3CCOCC3)c(F)cc2nc1N [Example 50, 7-Fluoro-3-(2-methoxybenzyl)-6-morpholin-4-ylquinolin-2-amine]"
25,< 300 nM,"CN(C)CCOc1cccc(F)c1Cc1cc2ccccc2nc1N [Example 60, 3-{2-[2-(Dimethylamino)ethoxy]-6-fluorobenzyl}quinolin-2-amine bishydrochloride]"
26,< 300 nM,"CCOc1cccc(OC)c1Cc1cc2ccccc2nc1N [Example 4, 3-(2-Ethoxy-6-methoxybenzyl)quinolin-2-amine]"
27,< 10000 nM,"COc1ccccc1CN1Cc2ccccc2N=C1NO [Example 73, 2-(Hydroxyamino)-3-(2-methoxybenzyl)-3,4-dihydroquinazoline]"

row,Ki,Molecule
1,< 300 nM,"COc1ccccc1CN1Cc2ccc(C(F)(F)F)cc2N=C1N [Example 66, 3-(2-Methoxybenzyl)-7-(trifluoromethyl)-3,4-dihydroquinazolin-2-amine hydrochloride]"
2,< 300 nM,"COc1cccc(OC)c1CN1Cc2ccccc2N=C1NC1CCCCCC1 [Example 92, N-Cycloheptyl-3-(2,6-dimethoxybenzyl)-3,4-dihydroquinazolin-2-amine hydrochloride]"
3,< 300 nM,"COc1ccccc1Cc1cc2ccc(N(C)C)cc2nc1N [Example 28, 3-(2-Methoxybenzyl)-N^7,N^7-dimethylquinolin-2,7-diamine]"
4,< 300 nM,"COc1cccc(OC)c1CN1Cc2ccc(Nc3ccccc3)cc2N=C1N [Example 88, 7-Anilino-3-(2,6-dimethoxybenzyl)-3,4-dihydroquinazolin-2-aminium acetate]"
5,< 10000 nM,"COc1ccccc1CN1Cc2ccccc2N=C1N1CCNCC1 [Example 78, 3-(2-Methoxybenzyl)-2-piperazin-1-yl-3,4-dihydroquinazoline hydrochloride]"
6,< 300 nM,"COc1ccccc1Cc1cc2cccc(OC)c2nc1N [Example 51, 8-Methoxy-3-(2-methoxybenzyl)quinolin-2-amine]"
7,< 300 nM,"COc1ccc2cc(Cc3ccccc3OC)c(N)nc2c1 [Example 6, 7-Methoxy-3-(2-methoxybenzyl)quinolin-2-amine]"
8,< 300 nM,"COc1ccccc1CN1Cc2cc(Cl)ccc2N=C1N [Example 102, 6-Chloro-3-(2-methoxybenzyl)-3,4-dihydroquinazolin-2-amine]"
9,< 300 nM,"COc1cccc(OC)c1CN1Cc2ccccc2N=C1N [Example 63, 3-(2,6-Dimethoxybenzyl)-3,4-dihydroquinazolin-2-amine acetate]"
10,< 300 nM,"COc1ccccc1Cc1cc2ccccc2nc1N [Example 1, 3-(2-Methoxybenzyl)quinolin-2-amine]"
11,< 300 nM,"COc1cccc(F)c1Cc1cc2cc(N3CCOCC3)ccc2nc1N [Example 45, 3-(2-Methoxy-6-fluorobenzyl)-6-morpholin-4-ylquinolin-2-amine]"
12,< 300 nM,"COc1cccc(Cl)c1Cc1cc2ccccc2nc1N [Example 30, 3-(2-Chloro-6-methoxybenzyl)quinolin-2-amine]"
13,< 300 nM,"COc1ccccc1CN1Cc2ccc(Cl)cc2N=C1N [Example 65, 7-Chloro-3-(2-methoxybenzyl)-3,4-dihydroquinazolin-2-amine]"
14,< 10000 nM,"COc1cccc(OC)c1Cc1cc2cccnc2nc1N [Example 21, 3-(2,6-Dimethoxybenzyl)-1,8-naphthyridin-2-amine]"
15,< 10000 nM,"COc1cccc(OC)c1CN1Cc2ccccc2N=C1NCc1ccccc1 [Example 95, N-Benzyl-3-(2,6-dimethoxybenzyl)-3,4-dihydroquinazolin-2-amine hydrochloride]"
16,< 300 nM,"COc1ccccc1Cc1cc2cc(OC)c(OC)cc2nc1N [Example 16, 6,7-Dimethoxy-3-(2-methoxybenzyl)quinolin-2-amine]"
17,< 300 nM,"COc1cccc(Cl)c1Cc1cc2cc3c(cc2nc1N)OCO3 [Example 40, 7-(2-Chloro-6-methoxybenzyl)[1.3]dioxolo[4,5-g]quinolin-76-amine]"
18,< 300 nM,"COc1cccc(F)c1Cc1cc2cc3c(cc2nc1N)OCO3 [Example 17, 7-(2-Fluoro-6-methoxybenzyl)[1.3]dioxolo[4.5-g]quinolin-6-amine]"
19,< 10000 nM,"COc1cccc(OC)c1CN1Cc2ccccc2N=C1NCc1ccccn1 [Example 94, [3-(2,6-Dimethoxybenzyl)-3,4-dihydroquinazolin-2-yl]pyridin-2-ylmethylamine hydrochloride]"
20,< 300 nM,"COc1cccc(F)c1Cc1cc2ccc(F)cc2nc1N [Example 42, 7-Fluoro-3-(2-fluoro-6-methoxybenzyl)quinolin-2-amine]"
21,< 10000 nM,"COc1ccccc1CN1Cc2ccccc2N=C1NCc1cccnc1 [Example 75, 3-(2-Methoxybenzyl)-2-[(pyridin-3-ylmethyl)amino]-3,4-dihydroquinazoline acetate]"
22,< 10000 nM,"COc1ccccc1CN1Cc2ccccc2N=C1NCc1cccc2ccccc12 [Example 98, 3-(2-Methoxybenzyl)-N-(1-naphthylmethyl)-3,4-dihydroquinazolin-2-amine hydrochloride]"
23,< 300 nM,"Nc1nc2ccccc2cc1Cc1ccccc1OC(F)(F)F [Example 53, 3-[2-(Trifluoromethoxy)benzyl]quinolin-2-amine]"
24,< 300 nM,"COc1ccccc1Cc1cc2cc(F)c(F)cc2nc1N [Example 41, 6,7-Difluoro-3-(2-methoxybenzyl)quinolin-2-amine]"
25,< 300 nM,"COc1cccc(Cl)c1Cc1cc2ncccc2nc1N [Example 58, 3-(2-Chloro-6-methoxybenzyl)-1,5-naphthyridin-2-amine]"
26,< 300 nM,"COc1cccc(OC)c1Cc1cc2cc(F)ccc2nc1N [Example 23, 3-(2,6-Dimethoxybenzyl)-6-fluoroquinolin-2-amine]"
27,< 300 nM,"COc1ccccc1Cc1cc2cnccc2nc1N [Example 33, 3-(2-Methoxybenzyl)-1,6-naphthyridin-2-amine]"

row,Molecule,Ki
1,"3-(2-Methoxybenzyl)-N-(1-naphthylmethyl)-3,4-dihydroquinazolin-2-amine hydrochloride [Example 99]",< 10000 nM
